Columns and labels:
Type in all cases: biochemical
KRAS Q61H = KRAS Q61H (Homo sapiens, UniProt P01116+P62937, Q61H); experiment: Disruption of BRAF RBD interaction with Ras (FRET / MOA assay, with Cyclophilin A); conditions: KRAS Q61H; read-out: KRAS Q61H FRET data IC50
Excerpt: (§1) Disruption of B-Raf Ras-Binding Domain (BRAF^RBD) Interaction with K-Ras by Compounds of the Invention (Also Called a FRET Assay or an MOA Assay)
(§2) Note—The following protocol describes a procedure for monitoring disruption of K-Ras G12C (GMP-PNP) binding to BRAF^RBD by a compound of the invention. This protocol may also be executed substituting other Ras proteins or nucleotides.
(§3) The purpose of this biochemical assay was to measure the ability of test compounds to facilitate ternary complex formation between a nucleotide-loaded K-Ras isoform and Cyclophilin A; the resulting ternary complex disrupts binding to a BRAF^RBD construct, inhibiting K-Ras signaling through a RAF effector. Data is reported as IC50 values.
(§4) In assay buffer containing 25 mM HEPES pH 7.3, 0.002% Tween20, 0.1% BSA, 100 mM NaCl and 5 mM MgCl2, tagless Cyclophilin A, His6-K-Ras-GMPPNP, and GST-BRAF^RBD were combined in a 384-well assay plate at final concentrations of 25 μM, 12.5 nM and 50 nM, respectively. Compound was present in plate wells as a 10-point 3-fold dilution series starting at a final concentration of 30 μM. After incubation at 25° C. for 3 hours, a mixture of Anti-His Eu-W1024 and anti-GST allophycocyanin was then added to assay sample wells at final concentrations of 10 nM and 50 nM, respectively, and the reaction incubated for an additional 1.5 hours. […] Compounds that facilitate disruption of a K-Ras:RAF complex were identified as those eliciting a decrease in the TR-FRET ratio relative to DMSO control wells.
as §3, with “BRAF^RBDD” for “BRAF^RBD”

NRAS Q61K = NRAS Q61K (Homo sapiens, UniProt P01111+P62937, Q61K); experiment: as above; conditions: NRAS Q61K; read-out: NRAS Q61K FRET data IC50
Excerpt: as §1, §2, §3, §4
as §3, with “BRAF^RBDD” for “BRAF^RBD”

KRAS G12D = KRAS G12D (Homo sapiens, UniProt P01116+P62937, G12D); experiment: Ras-Raf disruption / FRET / MOA assay (BRAF RBD); conditions: Ras-Raf disruption, with Cyclophilin A; read-out: KRAS G12D FRET data IC50
Summary of the method: (§5)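 Compound-induced Ras–Cyclophilin A ternary complex disrupting BRAF RBD binding, read as IC50 from reduced TR-FRET ratio relative to DMSO. Final: Ras-GMPPNP 12.5 nM, BRAF RBD 50 nM, Cyclophilin A 25 μM, top compound 30 μM (3-fold, 10 points); 3 h at 25 °C, then 1.5 h with detection antibodies.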

KRAS G12S = KRAS G12S (Homo sapiens, UniProt P01116+P62937, G12S); experiment: Ras-Raf disruption / FRET / MOA assay (BRAF RBD); conditions: Ras-Raf disruption, with Cyclophilin A; read-out: KRAS G12S FRET data IC50
Summary of the method: as §5

KRAS G12V = KRAS G12V (Homo sapiens, UniProt P01116+P62937, G12V); experiment: Ras-Raf disruption / FRET / MOA assay (BRAF RBD); conditions: Ras-Raf disruption, with Cyclophilin A; read-out: KRAS G12V FRET data IC50
Summary of the method: as §5

KRAS G13C = KRAS G13C (Homo sapiens, UniProt P01116+P62937, G13C); experiment: Ras-Raf disruption / FRET / MOA assay (BRAF RBD); conditions: Ras-Raf disruption, with Cyclophilin A; read-out: KRAS G13C FRET data IC50
Summary of the method: as §5

KRAS G13D = KRAS G13D (Homo sapiens, UniProt P01116+P62937, G13D); experiment: Ras-Raf disruption / FRET / MOA assay (BRAF RBD); conditions: Ras-Raf disruption, with Cyclophilin A; read-out: KRAS G13D FRET data IC50
Summary of the method: as §5

KRAS WT = KRAS WT (Homo sapiens, UniProt P01116+P62937); experiment: Ras-Raf disruption / FRET / MOA assay (BRAF RBD); conditions: Ras-Raf disruption, with Cyclophilin A; read-out: KRAS WT FRET data IC50
Summary of the method: as §5

NRAS G12C = NRAS G12C (Homo sapiens, UniProt P01111+P62937, G12C); experiment: Ras-Raf disruption / FRET / MOA assay (BRAF RBD); conditions: NRAS G12C; read-out: NRAS G12C FRET data IC50
Summary of the method: as §5

KRAS G12C = KRAS G12C (Homo sapiens, UniProt P01116+P62937, G12C); experiment: Ras-Raf disruption / FRET / MOA assay (BRAF RBD); conditions: Ras-Raf disruption, with Cyclophilin A; read-out: KRAS G12C FRET data IC50
Summary of the method: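 TR-FRET read-out after 1.5 h with anti-His Eu-W1024 (10 nM) and anti-GST APC (50 nM), following 3 h at 25 °C of compound (top 30 μM, 3-fold, 10 points) with 25 μM Cyclophilin A, 12.5 nM GMPPNP-loaded K-Ras G12C and 50 nM BRAF RBD; IC50 reported.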

Chain of KRAS G12V (P01116 1-169 isoform P01116-2 G12V limits assumed): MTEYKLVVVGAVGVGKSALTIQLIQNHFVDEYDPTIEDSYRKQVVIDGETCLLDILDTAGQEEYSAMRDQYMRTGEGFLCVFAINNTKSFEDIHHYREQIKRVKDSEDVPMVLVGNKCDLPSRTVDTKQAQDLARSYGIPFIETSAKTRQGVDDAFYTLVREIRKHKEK
Chain of KRAS G12V (P62937 whole entry): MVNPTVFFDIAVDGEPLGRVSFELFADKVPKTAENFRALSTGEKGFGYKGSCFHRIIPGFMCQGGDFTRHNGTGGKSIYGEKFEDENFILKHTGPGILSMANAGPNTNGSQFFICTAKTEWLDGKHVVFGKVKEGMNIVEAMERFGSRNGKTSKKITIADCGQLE
Chain of KRAS WT (P01116 1-169 isoform P01116-2 limits assumed): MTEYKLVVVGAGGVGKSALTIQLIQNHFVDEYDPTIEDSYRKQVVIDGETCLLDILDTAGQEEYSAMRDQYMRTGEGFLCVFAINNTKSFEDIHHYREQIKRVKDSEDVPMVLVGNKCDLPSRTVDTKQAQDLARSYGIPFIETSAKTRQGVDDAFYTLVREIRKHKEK
Chain of KRAS WT (P62937 whole entry): as the sequence (P62937 whole entry) above
Chain of KRAS G12S (P01116 1-169 isoform P01116-2 G12S limits assumed): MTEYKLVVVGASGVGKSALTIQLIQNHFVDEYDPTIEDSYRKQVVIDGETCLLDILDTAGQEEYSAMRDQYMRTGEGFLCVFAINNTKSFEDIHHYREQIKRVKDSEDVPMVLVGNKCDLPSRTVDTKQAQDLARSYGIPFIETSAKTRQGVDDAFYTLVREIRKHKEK
Chain of KRAS G12S (P62937 whole entry): as the sequence (P62937 whole entry) above
Chain of KRAS G13D (P01116 1-169 isoform P01116-2 G13D limits assumed): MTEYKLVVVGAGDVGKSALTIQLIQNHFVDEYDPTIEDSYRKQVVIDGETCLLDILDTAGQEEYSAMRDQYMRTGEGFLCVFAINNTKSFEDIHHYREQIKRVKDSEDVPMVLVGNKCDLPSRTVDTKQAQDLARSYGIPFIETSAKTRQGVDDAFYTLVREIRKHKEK
Chain of KRAS G13D (P62937 whole entry): as the sequence (P62937 whole entry) above
Chain of KRAS G12D (P01116 1-169 isoform P01116-2 G12D limits assumed): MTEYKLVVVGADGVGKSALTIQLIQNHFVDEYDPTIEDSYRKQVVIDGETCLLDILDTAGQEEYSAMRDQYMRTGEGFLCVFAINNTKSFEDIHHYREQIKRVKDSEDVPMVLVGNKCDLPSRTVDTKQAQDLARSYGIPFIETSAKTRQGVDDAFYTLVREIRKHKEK
Chain of KRAS G12D (P62937 whole entry): as the sequence (P62937 whole entry) above
Chain of NRAS G12C (P01111 whole entry G12C): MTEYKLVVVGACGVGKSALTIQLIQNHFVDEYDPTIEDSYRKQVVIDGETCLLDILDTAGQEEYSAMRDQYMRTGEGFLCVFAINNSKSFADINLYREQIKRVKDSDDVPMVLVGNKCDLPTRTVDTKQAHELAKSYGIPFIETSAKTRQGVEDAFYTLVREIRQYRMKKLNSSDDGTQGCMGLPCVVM
Chain of NRAS G12C (P62937 whole entry): as the sequence (P62937 whole entry) above
Chain of KRAS G12C (P01116 1-169 isoform P01116-2 G12C limits assumed): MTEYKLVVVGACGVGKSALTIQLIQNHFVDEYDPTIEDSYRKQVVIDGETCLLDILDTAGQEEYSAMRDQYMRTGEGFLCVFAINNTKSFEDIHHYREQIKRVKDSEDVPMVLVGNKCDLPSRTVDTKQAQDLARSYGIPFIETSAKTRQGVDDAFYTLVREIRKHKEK
Chain of KRAS G12C (P62937 whole entry): as the sequence (P62937 whole entry) above
Chain of KRAS G13C (P01116 1-169 isoform P01116-2 G13C limits assumed): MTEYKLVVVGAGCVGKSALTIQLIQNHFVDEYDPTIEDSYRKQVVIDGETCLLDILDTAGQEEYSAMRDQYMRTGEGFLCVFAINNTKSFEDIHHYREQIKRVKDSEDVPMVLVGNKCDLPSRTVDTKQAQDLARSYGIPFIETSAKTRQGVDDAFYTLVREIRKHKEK
Chain of KRAS G13C (P62937 whole entry): as the sequence (P62937 whole entry) above
Chain of KRAS Q61H (P01116 1-169 isoform P01116-2 Q61H limits assumed): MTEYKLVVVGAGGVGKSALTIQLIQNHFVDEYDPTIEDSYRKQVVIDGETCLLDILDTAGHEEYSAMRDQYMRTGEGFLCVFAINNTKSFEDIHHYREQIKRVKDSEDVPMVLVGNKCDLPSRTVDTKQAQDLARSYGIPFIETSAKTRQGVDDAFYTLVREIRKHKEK
Chain of KRAS Q61H (P62937 whole entry, the tested form may be a part): as the sequence (P62937 whole entry) above
Chain of NRAS Q61K (P01111 whole entry Q61K): as the sequence (P01111 whole entry G12C) above, with C12G, Q61K counted along it
Chain of NRAS Q61K (P62937 whole entry): as the sequence (P62937 whole entry) above

Row | IC50 (KRAS Q61H) [nM] | IC50 (NRAS Q61K) [nM] | Compound | IC50 (KRAS G12D) [nM] | IC50 (KRAS G12S) [nM] | IC50 (KRAS G12V) [nM] | IC50 (KRAS G13C) [nM] | IC50 (KRAS G13D) [nM] | IC50 (KRAS WT) [nM] | IC50 (NRAS G12C) [nM] | IC50 (KRAS G12C) [nM]
1 | 10 to 100 | 10 to 100 | CCn1c(-c2cccnc2[C@H](C)OC)c2c3cc(ccc31)-c1csc(n1)C[C@H](NC(=O)[C@H](C(C)C)N(C)C(=O)N1CC3(CN(C)C3)C1)C(=O)N1CCC[C@H](N1)C(=O)OCC(C)(C)C2 (atropisomer, axis not shown) [Example A268] |  |  |  |  |  |  |  | 
2 |  |  | CCn1c(-c2cccnc2[C@H](C)OC)c2c3cc(ccc31)-c1cc(O)cc(c1)C[C@H](NC(=O)[C@H](C(C)C)N1CC[C@@]3(CCN(C[C@@H]4CN4)C3)C1=O)C(=O)N1CCC[C@H](N1)C(=O)OCC(C)(C)C2 [Example 138] | 100 to 1000 | 100 to 1000 | 1000 to 10000 | 10 to 100 | 10 to 100 | 10 to 100 | < 10 | 10 to 100
3 |  |  | CCn1c(-c2cccnc2[C@H](C)OC)c2c3cc(ccc31)-c1cc(O)cc(c1)C[C@H](NC(=O)[C@H](C(C)C)N1CCC3(CN(C(=O)[C@H]4CN4)C3)C1=O)C(=O)N1CCC[C@H](N1)C(=O)OCC(C)(C)C2 [Example 115] | 100 to 1000 | 100 to 1000 | 100 to 1000 | 10 to 100 | 10 to 100 | 10 to 100 | < 10 | < 10
4 |  |  | CCn1c(-c2cccnc2[C@H](C)OC)c2c3cc(ccc31)-c1cccc(c1)C[C@H](NC(=O)[C@H](C(C)C)N(C)C(=O)[C@H]1CC[C@H](N=C=NCc3ccccc3OC)C1)C(=O)N1CCC[C@H](N1)C(=O)OCC(C)(C)C2 [Example 76] | 1000 to 10000 | > 10000 | > 10000 | 100 to 1000 | > 10000 | 1000 to 10000 | 100 to 1000 | 100 to 1000
5 |  |  | CCn1c(-c2cccnc2[C@H](C)OC)c2c3cc(ccc31)-c1cc(O)cc(c1)C[C@H](NC(=O)[C@H](C(C)C)N(C)C(=O)N1CCN(C(=O)[C@@H]3CN3)C(=O)C1)C(=O)N1CCC[C@H](N1)C(=O)OCC(C)(C)C2 [Example 194] | 100 to 1000 | 100 to 1000 | 100 to 1000 | 10 to 100 | 10 to 100 | 100 to 1000 | 100 to 1000 | 100 to 1000
6 |  |  | CCn1c(-c2cccnc2[C@H](C)OC)c2c3cc(ccc31)-c1cc(O)cc(c1)C[C@H](NC(=O)[C@H](C(C)C)N(C)C(=O)c1ccc(NC(=O)[C@H]3CN3)cn1)C(=O)N1CCC[C@H](N1)C(=O)OCC(C)(C)C2 [Example 127] | 100 to 1000 | 10 to 100 | 100 to 1000 | 10 to 100 | 100 to 1000 | 100 to 1000 | 100 to 1000 | 100 to 1000

— patent US20230233569A1 (Revolution Medicines, Inc., priority 2020, published 2023)
